The values below come from ChEMBL document CHEMBL5678810.

Experiment [1] concerns the target Dual specificity mitogen-activated protein kinase kinase 5 (Homo sapiens, UniProt Q13163). The experiment can be described thus: Inhibition of GST-tagged MEK5 (unknown origin) expressed in baculovirus expression system incubated for 90 mins in presence of ATP by PKLight ATP Detection Reagent based analysis.
Experiment [2] concerns the target Mitogen-activated protein kinase 7 (Homo sapiens, UniProt Q13164). The experiment in a line: Inhibition of GST-tagged ERK5 (unknown origin) expressed in baculovirus expression system incubated for 90 mins in presence of ATP by PKLight ATP Detection Reagent based analysis.
The target in experiment [3] is T1, Dual specificity protein kinase TTK (Homo sapiens) (UniProt P33981).
T1 sequence (whole entry): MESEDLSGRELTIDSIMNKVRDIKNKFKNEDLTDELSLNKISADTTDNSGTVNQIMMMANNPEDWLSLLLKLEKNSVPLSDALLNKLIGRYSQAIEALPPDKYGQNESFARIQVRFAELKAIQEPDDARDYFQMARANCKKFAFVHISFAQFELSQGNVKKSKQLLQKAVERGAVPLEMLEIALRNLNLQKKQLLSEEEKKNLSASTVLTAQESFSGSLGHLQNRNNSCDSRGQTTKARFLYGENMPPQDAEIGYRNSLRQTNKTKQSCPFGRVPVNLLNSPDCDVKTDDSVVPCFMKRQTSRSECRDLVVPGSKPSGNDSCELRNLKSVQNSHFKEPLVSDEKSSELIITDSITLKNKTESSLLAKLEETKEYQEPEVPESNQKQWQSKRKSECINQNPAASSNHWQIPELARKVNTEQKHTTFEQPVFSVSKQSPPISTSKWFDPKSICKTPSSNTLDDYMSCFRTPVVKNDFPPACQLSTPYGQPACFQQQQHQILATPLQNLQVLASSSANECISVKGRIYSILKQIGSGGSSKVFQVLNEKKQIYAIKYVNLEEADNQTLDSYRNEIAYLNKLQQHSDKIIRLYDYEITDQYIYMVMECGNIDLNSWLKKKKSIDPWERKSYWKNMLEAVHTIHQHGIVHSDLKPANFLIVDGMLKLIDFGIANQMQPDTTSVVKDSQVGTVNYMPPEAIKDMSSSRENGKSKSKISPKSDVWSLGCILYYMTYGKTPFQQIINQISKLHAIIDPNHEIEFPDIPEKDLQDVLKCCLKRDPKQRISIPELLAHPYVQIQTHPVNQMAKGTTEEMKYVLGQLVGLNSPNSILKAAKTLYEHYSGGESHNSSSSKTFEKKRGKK
The experiment in a line: Inhibition of T7 bacteriophage fused human TTK at 10 uM by KINOMEscan analysis relative to control.

Experiment [4] concerns the target Tyrosine-protein kinase Tec (Homo sapiens) (UniProt P42680). The experiment in a line: Inhibition of T7 bacteriophage fused human TEC at 10 uM by KINOMEscan analysis relative to control.
Experiment [5] concerns the target Ribosomal protein S6 kinase alpha-6 (Homo sapiens) (UniProt Q9UK32). The experiment in a line: Inhibition of T7 bacteriophage fused human C-terminal RSK4 Kinase domain-2 at 10 uM by KINOMEscan analysis relative to control.
The target in experiment [6] is Peripheral plasma membrane protein CASK (Homo sapiens) (UniProt O14936). The experiment can be described thus: Inhibition of T7 bacteriophage fused human CASK at 10 uM by KINOMEscan analysis relative to control.
Sequence of Peripheral plasma membrane protein CASK (Homo sapiens) (O14936 whole entry, looked up, the tested form may be a part): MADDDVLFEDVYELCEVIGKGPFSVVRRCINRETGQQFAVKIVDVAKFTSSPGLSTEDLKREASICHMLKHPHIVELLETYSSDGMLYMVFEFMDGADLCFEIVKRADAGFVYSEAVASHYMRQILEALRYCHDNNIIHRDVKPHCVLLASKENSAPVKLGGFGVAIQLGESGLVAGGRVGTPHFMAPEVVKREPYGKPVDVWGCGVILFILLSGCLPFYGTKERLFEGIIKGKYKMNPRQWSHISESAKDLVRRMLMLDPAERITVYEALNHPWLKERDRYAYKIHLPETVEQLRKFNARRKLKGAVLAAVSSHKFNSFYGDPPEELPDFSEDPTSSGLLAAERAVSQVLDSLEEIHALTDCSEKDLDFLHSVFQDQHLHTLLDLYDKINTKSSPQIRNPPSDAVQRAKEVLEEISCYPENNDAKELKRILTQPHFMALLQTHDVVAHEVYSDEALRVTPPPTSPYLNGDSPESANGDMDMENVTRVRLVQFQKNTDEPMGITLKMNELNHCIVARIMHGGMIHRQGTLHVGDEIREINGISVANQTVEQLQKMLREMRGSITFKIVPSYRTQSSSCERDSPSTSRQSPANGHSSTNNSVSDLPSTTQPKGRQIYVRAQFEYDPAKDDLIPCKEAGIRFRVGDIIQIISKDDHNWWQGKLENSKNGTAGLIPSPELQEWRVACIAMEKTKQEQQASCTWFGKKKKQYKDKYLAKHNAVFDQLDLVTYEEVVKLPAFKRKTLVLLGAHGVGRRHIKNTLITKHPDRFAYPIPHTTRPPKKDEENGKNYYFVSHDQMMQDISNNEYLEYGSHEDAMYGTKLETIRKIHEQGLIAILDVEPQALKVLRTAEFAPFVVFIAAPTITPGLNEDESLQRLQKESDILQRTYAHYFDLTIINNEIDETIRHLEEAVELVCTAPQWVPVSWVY
Experiment [7] addresses Ribosomal protein S6 kinase alpha-2 (Homo sapiens) (UniProt Q15349). The experiment in a line: Inhibition of T7 bacteriophage fused human C-terminal RSK3 Kinase domain-2 at 10 uM by KINOMEscan analysis relative to control.
Experiment [8] has as its target STE20-like serine/threonine-protein kinase (Homo sapiens) (UniProt Q9H2G2). The experiment can be described thus: Inhibition of T7 bacteriophage fused human SLK at 10 uM by KINOMEscan analysis relative to control.

Sequence of STE20-like serine/threonine-protein kinase (Homo sapiens) (Q9H2G2 whole entry, looked up, the tested form may be a part): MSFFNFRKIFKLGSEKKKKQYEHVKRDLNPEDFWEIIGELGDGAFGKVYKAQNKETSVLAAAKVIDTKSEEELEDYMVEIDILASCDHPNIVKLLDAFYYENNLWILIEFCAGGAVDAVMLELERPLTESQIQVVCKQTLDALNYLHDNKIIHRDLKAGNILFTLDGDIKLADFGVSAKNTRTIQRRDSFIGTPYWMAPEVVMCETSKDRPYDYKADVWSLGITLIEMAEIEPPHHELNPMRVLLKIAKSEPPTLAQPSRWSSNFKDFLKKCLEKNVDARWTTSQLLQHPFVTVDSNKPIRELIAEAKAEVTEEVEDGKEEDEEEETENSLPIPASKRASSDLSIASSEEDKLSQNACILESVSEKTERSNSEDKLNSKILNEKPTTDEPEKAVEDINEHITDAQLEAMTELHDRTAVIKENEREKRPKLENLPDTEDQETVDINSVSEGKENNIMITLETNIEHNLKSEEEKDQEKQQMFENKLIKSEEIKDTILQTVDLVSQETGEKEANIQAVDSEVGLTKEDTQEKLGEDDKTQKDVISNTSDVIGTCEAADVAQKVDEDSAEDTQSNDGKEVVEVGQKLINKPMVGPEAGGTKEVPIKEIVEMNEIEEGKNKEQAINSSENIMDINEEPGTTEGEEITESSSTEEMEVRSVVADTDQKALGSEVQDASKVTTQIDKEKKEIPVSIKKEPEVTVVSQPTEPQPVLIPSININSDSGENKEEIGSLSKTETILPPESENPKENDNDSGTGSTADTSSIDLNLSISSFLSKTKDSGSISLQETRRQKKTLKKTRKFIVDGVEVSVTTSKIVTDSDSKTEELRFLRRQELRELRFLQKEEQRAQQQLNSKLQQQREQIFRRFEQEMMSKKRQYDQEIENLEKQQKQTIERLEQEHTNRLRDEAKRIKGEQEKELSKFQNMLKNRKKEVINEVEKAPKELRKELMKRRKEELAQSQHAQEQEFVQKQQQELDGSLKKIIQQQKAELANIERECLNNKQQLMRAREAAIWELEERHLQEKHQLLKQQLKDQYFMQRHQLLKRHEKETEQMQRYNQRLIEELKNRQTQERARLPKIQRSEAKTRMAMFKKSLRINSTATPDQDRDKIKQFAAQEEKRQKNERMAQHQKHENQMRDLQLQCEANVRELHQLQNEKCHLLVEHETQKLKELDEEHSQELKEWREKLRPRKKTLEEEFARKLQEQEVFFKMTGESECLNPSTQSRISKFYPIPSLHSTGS
Sequence of Tyrosine-protein kinase Tec (Homo sapiens) (P42680 whole entry, looked up, the tested form may be a part): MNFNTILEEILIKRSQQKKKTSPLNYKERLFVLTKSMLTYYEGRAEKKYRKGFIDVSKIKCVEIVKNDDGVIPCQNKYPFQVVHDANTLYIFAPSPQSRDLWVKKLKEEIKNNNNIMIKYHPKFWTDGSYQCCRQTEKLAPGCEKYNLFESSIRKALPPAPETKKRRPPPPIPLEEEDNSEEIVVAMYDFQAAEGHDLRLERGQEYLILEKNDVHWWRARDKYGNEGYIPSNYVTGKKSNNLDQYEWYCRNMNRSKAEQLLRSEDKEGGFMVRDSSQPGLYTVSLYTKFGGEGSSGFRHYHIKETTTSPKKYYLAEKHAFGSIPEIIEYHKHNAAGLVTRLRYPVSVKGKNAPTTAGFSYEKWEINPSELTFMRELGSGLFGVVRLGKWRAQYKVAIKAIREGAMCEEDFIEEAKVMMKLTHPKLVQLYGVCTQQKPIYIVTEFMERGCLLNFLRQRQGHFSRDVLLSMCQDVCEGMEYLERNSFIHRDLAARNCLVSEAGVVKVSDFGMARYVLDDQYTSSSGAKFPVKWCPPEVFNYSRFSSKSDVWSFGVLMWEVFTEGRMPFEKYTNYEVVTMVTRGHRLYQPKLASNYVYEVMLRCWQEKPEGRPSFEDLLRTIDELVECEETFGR
Sequence of Dual specificity mitogen-activated protein kinase kinase 5 (Q13163 whole entry): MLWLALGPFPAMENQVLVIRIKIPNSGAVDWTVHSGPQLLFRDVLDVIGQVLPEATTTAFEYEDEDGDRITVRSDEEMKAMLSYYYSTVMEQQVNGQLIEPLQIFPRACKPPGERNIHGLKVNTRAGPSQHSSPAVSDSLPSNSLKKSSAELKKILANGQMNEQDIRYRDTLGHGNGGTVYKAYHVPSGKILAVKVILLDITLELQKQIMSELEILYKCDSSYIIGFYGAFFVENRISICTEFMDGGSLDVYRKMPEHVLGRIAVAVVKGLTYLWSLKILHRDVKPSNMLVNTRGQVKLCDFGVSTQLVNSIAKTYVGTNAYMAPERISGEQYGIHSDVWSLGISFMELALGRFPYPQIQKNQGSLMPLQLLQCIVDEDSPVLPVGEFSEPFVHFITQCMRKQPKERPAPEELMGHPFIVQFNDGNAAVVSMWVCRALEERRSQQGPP
Sequence of Ribosomal protein S6 kinase alpha-2 (Homo sapiens) (Q15349 whole entry, the tested form may be a part): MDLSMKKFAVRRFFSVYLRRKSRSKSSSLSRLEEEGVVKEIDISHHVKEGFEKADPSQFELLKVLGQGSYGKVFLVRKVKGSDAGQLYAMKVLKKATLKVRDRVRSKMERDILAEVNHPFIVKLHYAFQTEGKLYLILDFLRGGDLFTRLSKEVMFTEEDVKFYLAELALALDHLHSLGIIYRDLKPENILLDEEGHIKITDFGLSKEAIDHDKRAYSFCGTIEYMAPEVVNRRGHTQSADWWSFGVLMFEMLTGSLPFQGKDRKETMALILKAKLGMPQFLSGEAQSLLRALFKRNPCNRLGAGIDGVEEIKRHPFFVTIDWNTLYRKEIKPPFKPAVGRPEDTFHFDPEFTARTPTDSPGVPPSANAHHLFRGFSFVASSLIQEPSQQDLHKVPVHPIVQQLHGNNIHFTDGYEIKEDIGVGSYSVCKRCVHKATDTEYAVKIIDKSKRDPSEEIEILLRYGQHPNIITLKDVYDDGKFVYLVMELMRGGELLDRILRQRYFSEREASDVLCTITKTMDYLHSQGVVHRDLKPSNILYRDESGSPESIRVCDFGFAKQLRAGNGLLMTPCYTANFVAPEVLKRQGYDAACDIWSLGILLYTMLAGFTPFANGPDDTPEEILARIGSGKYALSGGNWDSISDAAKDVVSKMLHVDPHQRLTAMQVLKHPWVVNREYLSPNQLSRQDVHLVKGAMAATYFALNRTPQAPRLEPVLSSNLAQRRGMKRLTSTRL
Sequence of Ribosomal protein S6 kinase alpha-6 (Homo sapiens) (Q9UK32 whole entry, the tested form may be a part): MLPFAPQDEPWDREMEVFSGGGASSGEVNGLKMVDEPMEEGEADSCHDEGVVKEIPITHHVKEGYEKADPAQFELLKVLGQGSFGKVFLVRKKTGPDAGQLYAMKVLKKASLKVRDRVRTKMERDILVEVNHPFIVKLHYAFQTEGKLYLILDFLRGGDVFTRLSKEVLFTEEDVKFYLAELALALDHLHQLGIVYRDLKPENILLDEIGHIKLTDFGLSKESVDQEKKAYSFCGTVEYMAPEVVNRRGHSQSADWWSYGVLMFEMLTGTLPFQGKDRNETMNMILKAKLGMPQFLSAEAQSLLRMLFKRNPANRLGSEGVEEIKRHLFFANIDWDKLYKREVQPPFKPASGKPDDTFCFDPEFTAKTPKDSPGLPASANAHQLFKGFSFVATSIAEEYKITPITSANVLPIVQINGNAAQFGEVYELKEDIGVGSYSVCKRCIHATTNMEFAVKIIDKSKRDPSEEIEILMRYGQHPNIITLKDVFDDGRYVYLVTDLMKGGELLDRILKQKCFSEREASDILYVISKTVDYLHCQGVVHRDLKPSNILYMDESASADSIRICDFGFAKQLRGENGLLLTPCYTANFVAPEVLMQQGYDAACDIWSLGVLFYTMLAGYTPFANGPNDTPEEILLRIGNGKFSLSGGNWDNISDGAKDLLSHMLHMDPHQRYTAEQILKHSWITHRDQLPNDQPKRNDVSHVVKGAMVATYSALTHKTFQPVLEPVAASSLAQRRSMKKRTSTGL

In general, IC50 refers to the midpoint of a concentration-inhibition curve. Consider `CN(C)Cc1cccc(N/C(=C2\C(=O)Nc3cc(C(N)=O)ccc32)c2ccccc2)c1`, for which the IC50 in experiment [1] came out at 4.3 nM; in experiment [2], 810 nM.
For orientation: inhibition means the drop in the measured response relative to a control, in per cent. A high value points to a response far below the control. For the compound `COc1cc(C(=O)N2CCC(N3CCN(C)CC3)CC2)ccc1Nc1ncc2c(n1)N1CCc3cccc(c31)C(=O)N2C`, the inhibition in experiment [3] stood at 46%; in experiment [4] it was 100%; in experiment [5], 5.2%; in experiment [6], 100%; in experiment [7], 13%; in experiment [8] it was 49%.
